The supplement of paper PMC10307832

Columns and labels:
Assay in all cases: relative viability (nuclei count vs DMSO), 5 days (fraction); higher = more cells survive
YM155 + Olaparib = compound: COCC[n+]1c2c(n(Cc3cnccn3)c1C)C(=O)c1ccccc1C2=O [YM155] + O=C(c1cc(Cc2n[nH]c(=O)c3ccccc23)ccc1F)N1CCN(C(=O)C2CC2)CC1 [Olaparib] (partner 8 µM)
In short: (§1)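 Five library-drug doses in √10 steps were combined with a fixed anchor-drug dose, or a single drug was given alone, by pin tool to lung cancer cell lines in 1536-well plates the day after seeding. Nuclei were stained and counted after 5 days. Relative viability is the nuclei count in treated wells over that in vehicle wells, taken as the median of duplicate plates.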

YM155 + Pemetrexed = compound: COCC[n+]1c2c(n(Cc3cnccn3)c1C)C(=O)c1ccccc1C2=O [YM155] + Nc1nc2[nH]cc(CCc3ccc(C(=O)N[C@@H](CCC(=O)O)C(=O)O)cc3)c2c(=O)[nH]1 [Pemetrexed] (partner 0.2 µM)
In short: as §1

Quizartinib + Linsitinib = compound: CC(C)(C)c1cc(NC(=O)Nc2ccc(-c3cn4c(n3)sc3cc(OCCN5CCOCC5)ccc34)cc2)no1 [Quizartinib] + C[C@]1(O)C[C@@H](c2nc(-c3ccc4ccc(-c5ccccc5)nc4c3)c3c(N)nccn32)C1 [Linsitinib] (partner 1 µM)
In short: as §1

YM155 + Crizotinib = compound: COCC[n+]1c2c(n(Cc3cnccn3)c1C)C(=O)c1ccccc1C2=O [YM155] + C[C@@H](Oc1cc(-c2cnn(C3CCNCC3)c2)cnc1N)c1c(Cl)ccc(F)c1Cl [Crizotinib] (partner 1 µM)
In short: as §1

Row | Cell Line | relative viability (YM155 + Olaparib; first compound 0.002 µM) | relative viability (YM155 + Olaparib; first compound 0.006325 µM) | relative viability (YM155 + Olaparib; first compound 0.02 µM) | relative viability (YM155 + Olaparib; first compound 0.06325 µM) | relative viability (YM155 + Pemetrexed; first compound 0.002 µM) | relative viability (YM155 + Pemetrexed; first compound 0.006325 µM) | relative viability (YM155 + Pemetrexed; first compound 0.02 µM) | relative viability (YM155 + Pemetrexed; first compound 0.06325 µM) | relative viability (Quizartinib + Linsitinib; first compound 0.001 µM) | relative viability (Quizartinib + Linsitinib; first compound 0.003162 µM) | relative viability (Quizartinib + Linsitinib; first compound 0.01 µM) | relative viability (Quizartinib + Linsitinib; first compound 0.03162 µM) | relative viability (Quizartinib + Linsitinib; first compound 0.1 µM) | relative viability (YM155 + Crizotinib; first compound 0.002 µM) | relative viability (YM155 + Crizotinib; first compound 0.006325 µM) | relative viability (YM155 + Crizotinib; first compound 0.02 µM) | relative viability (YM155 + Crizotinib; first compound 0.06325 µM)
1 | NCI-H2405 | 0.753 | 0.771 | 0.637 | 0.397 | 0.886 | 0.961 | 0.914 | 0.452 | 0.85 | 0.883 | 0.927 | 0.909 | 1.09 | 0.8 | 0.82 | 0.831 | 0.644
2 | NCI-H3122 | 0.623 | 0.74 | 0.679 | 0.627 | 0.185 | 0.214 | 0.189 | 0.186 | 1.04 | 1.03 | 1.1 | 1.05 | 0.964 | 0.269 | 0.239 | 0.257 | 0.272
3 | PC-3 [JPC-3] | 1.12 | 1.19 | 1.1 | 0.796 | 0.978 | 1.22 | 1.07 | 0.967 | 0.853 | 0.951 | 0.931 | 0.988 | 0.933 | 0.939 | 1.04 | 1.06 | 1.1
4 | PC-14 | 0.292 | 0.205 | 0.281 | 0.155 | 0.126 | 0.136 | 0.148 | 0.141 | 0.922 | 0.875 | 0.942 | 0.986 | 0.99 | 0.948 | 0.931 | 1.04 | 0.818
5 | RERF-LC-KJ | 0.825 | 0.801 | 0.95 | 0.858 | 0.487 | 0.467 | 0.487 | 0.471 | 0.79 | 0.878 | 0.941 | 0.843 | 0.92 | 0.775 | 0.761 | 0.868 | 0.766
6 | SK-LU-1 | 0.422 | 0.442 | 0.516 | 0.327 | 0.946 | 0.956 | 0.91 | 0.684 | 0.941 | 1.07 | 1.31 | 1.11 | 0.906 | 0.871 | 0.931 | 1.11 | 0.805
7 | SK-MES-1 | 0.707 | 0.574 | 0.258 | 0.189 | 0.937 | 1.03 | 0.955 | 0.291 | 1.03 | 1 | 1.14 | 0.975 | 0.996 | 1.01 | 0.963 | 1.07 | 0.85
8 | SW 1573 | 0.5 | 0.409 | 0.21 | 0.0835 | 0.867 | 0.835 | 0.362 | 0.0865 | 0.738 | 0.691 | 0.81 | 0.642 | 0.8 | 0.767 | 0.877 | 0.902 | 0.581
9 | UMC-11 | 0.389 | 0.374 | 0.595 | 0.386 | 0.817 | 0.823 | 0.878 | 0.802 | 1.05 | 0.964 | 1.06 | 0.914 | 1.02 | 0.525 | 0.602 | 0.684 | 0.505
